Data on four compounds can be found in patent US20220047587A1, “SYNERGISTIC COMPOSITIONS COMPRISING R-2-(SUBSTITUTED-SULFONYL)-HEXAHYDRO-PYRROLO[1,2-A]PYRAZIN-6(2H)-ONES AND S-2-(SUBSTITUTED-SULFONYL)-HEXAHYDRO-PYRROLO[1,2-A]PYRAZIN-6(2H)-ONES IN A NON-RACEMIC RATIO” (Metys Pharmaceuticals AG, priority 2018, published 2022).

Experiment [1] deals with paclitaxel-treated rats. In words: Paclitaxel-induced peripheral sensory neuropathy model, hyperalgesia (paw pressure) after i.v. administration. The class given is in vivo, rat. An excerpt:
(§1) Results are expressed as the minimum dose (via the indicated route) at which a statistically-significant difference is observed when compared to time-matched injured rats receiving a vehicle administration by the same route. An analysis of variance, ANOVA, followed by Fisher's protected least significant difference procedure for post hoc comparison, was used to verify significance between two means of hyperalgesic behavioral results from the Randall & Selitto apparatus paw pressure test (“anti-hyperalgesia”) or from the Von Frey test (“mechanical allodynia”) or from the Cold Plate test (“cold allodynia”). P values 0.05 were considered significant. This definition applies to any doses specified herein as inhibiting “in a statistically significant manner”.
(§2) Paw mechanical sensitivity was determined using a Randall & Selitto apparatus (Randall and Selitto, 1957) exerting a force that increases at constant rate (32 g/s). The stimulus causing paw withdrawal was evaluated before and at different times after treatment. Results represent the mean of mechanical thresholds for paw withdrawal expressed as grams. To avoid possible damage to the rat paw the maximum applied force was set at 240 g. In the single administration protocol, paw pressure tests were performed before (pre-dose) and at regular intervals after treatment.
(§3) Paclitaxel (2 mg/kg i.p.) was administered on days 1, 3, 5 and 8. Test compounds were dissolved in saline and administered intravenously at the dose of 1 mg/kg to adult male Sprague-Dawley rats (Charles River, Italy, 220-250 g weight). Data were obtained at 0-75 minutes after injection and are expressed as the mean±s.e.m. of six animals. *P<0.05 and **<0.01 vs vehicle+paclitaxel treated rats; °P<0.05 and ^°°P<0.01 vs. NT24336 (R) treated group. […] *P<0.05 and **<0.01 vss vehicle+paclitaxel treated rats.

Experiment [2] has as its system paclitaxel-treated rats. The experiment is described as follows: Paclitaxel-induced mechanical allodynia (von Frey test) after i.v. administration. The class given is in vivo, rat. The settings on record: single acute administration 1 mg/kg i.v., adult male Sprague Dawley rats, 0-75 min after injection (FIG. 1).
Source text: (§4) Each animal was placed in a chamber with a mesh metal floor covered by a plastic dome that enabled the animal to walk freely, but not to jump. The mechanical stimulus was then delivered in the mid-plantar skin of left hind paw using an electronic von Frey apparatus (37400 Dynamic Plantar Aesthesiometer, Ugo Basile, Comerio, Varese, Italy). The cut-off was set at 50 g, while the increasing force rate (ramp duration) was set at 20 s. In the single administration protocol, pain threshold measurements have been performed before (pre-dose) and at regular intervals after treatment. In the repeated treatment protocol, the pre-test value was measured 13 h after the last administration; afterward the animals received a new administration and measures were performed at the described times. Results are expressed in […] and represent the mean±S.E.M. of mechanical thresholds.
as §3

The next experiment deals with CCI rats. In words: Chronic constriction injury (CCI) model, mechanical allodynia after oral administration. The settings on record: p.o. The class given is in vivo, rat.
Source text: as §1, §4
To evaluate the effect of test compounds in comparison to vehicle or selected comparators on mechanical hyperalgesia, the chronic constriction injury models in rats, a widely accepted model of painful neuropathy (Wang and Wang, 2003) was chosen.
Neuropathy was induced according to the procedure described by Bennett and Xie ([…]). Briefly, rats were anaesthetized with chloral hydrate 400 mg/kg i.p. under aseptic conditions, the right common sciatic nerve was exposed at the level of the middle thigh by blunt dissection. Proximal to the trifurcation, the nerve was carefully freed from the surrounding connective tissue and four chromic cat gut ligatures (4-0, Ethicon, Norderstedt, Germany) were tied loosely around it with about 1 mm spacing. After hemostasis was confirmed, the incision was closed in layers. Then animals were allowed to recover from anesthesia and surgery and were kept one per cage with free access to water and standard laboratory chow. This procedure induces the appearance of hyperalgesia and allodynia in response to mechanical stimuli, which are evident 2-5 days after injury and reach their maximum severity in about 14 days.

For the next experiment, the system named is MIA-treated rats. The experiment is described as follows: MIA-induced knee osteoarthritis model, mechanical hyperalgesia after i.v. administration. The class given is in vivo, rat.
Source text: as §1, §2
A single intra-articular injection of sodium monoiodoacetate (MIA) was introduced into the knee joint of rats according to the method described by Fernihough J et al., 2004. Sodium monoiodoacetate (MIA) inhibits chondrocyte metabolism leading to cartilage degradation in form of osteoarthritic-like focal lesions in the cartilage associated with subchondral bone thickening 14 days after administration (Guingamp et al., 1997). This model therefore can easily and quickly reproduce osteoarthritic-like lesions and functional impairment in rats, similar to that observed in human disease (Guzman et al., 2003). After 7 days post-injection, the inflammatory component subsides and the remaining pain is considered neuropathic in nature. Briefly, rats were deeply anaesthetized with diethyl ether. Following abolition of the hind paw pinch withdrawal reflex, a 27-gauge needle was introduced into the joint cavity between the tibial plateau and femoral condyles. Once in place, 2 mg of MIA were diluted in a volume of […] of 1% CMC (carboxymethylcellulose in water, Sigma-Aldrich, Italy) and injected into one knee joint and the rat was allowed to recover for 14 days prior to pain assessment.

The subject of experiment [3] is streptozotocin-treated mice. The experiment is described as follows: Streptozotocin diabetic peripheral neuropathy model, thermal hyperalgesia after oral administration. The class given is in vivo, mouse. The settings on record: p.o.
Source text: as §1
Mice (=30 g) were injected intravenously in the tail with 200 mg/kg streptozotocin (Wako Pure Chemicals, Richmond, Va.) prepared in saline adjusted to pH 4.5 in 0.1 N citrate buffer. Age-matched non-diabetic control mice were injected with the vehicle alone. Streptozotocin solutions were freshly prepared due to the limited stability of the compound. Animals were kept in a group of four per cage with special care of food and water supplement. The bed of the cage was changed every day. […] The serum glucose level was measured by glucose oxidase method from blood samples obtained by tail vein pricking. […] Animals at 7 days post-streptozotocin treatment were used in the study. […] Injections were performed using a Hamilton microliter syringe fitted with a 26-gauge needle, according to the method of Haley and McCormick (1957). The site of injection was 2 mm caudal and 2 lateral to the bregma, and 3 mm in depth from the skull surface. The injection volume was 5 μl.

A further experiment relates to oxaliplatin-treated rats. In words: Oxaliplatin-induced peripheral sensory neuropathy model, hyperalgesia after oral administration. The following applies: p.o. The class given is in vivo, rat.
Source text: as §1, §2
Peripheral sensory neuropathy was induced in adult rats, by administration of oxaliplatin (Tocris) at […] i.p. in saline once daily for 5 consecutive days every week for three weeks (cumulative dose 36 mg/kg) according to Cavaletti et al., 2001. Starting from day 21 after the first oxaliplatin administration, the effect of repeated oral administration of racemic unifiram or the preferred inventive composition with an enantiomeric excess of (R)-unifiram of 50% corresponding to a 3:1 (R):(S) ratio of the enantiomers on oxaliplatin-induced mechanical hyperalgesia was assessed.

The next experiment relates to vincristine-treated rats. The experiment is described as follows: Vincristine-induced peripheral sensory neuropathy model, hyperalgesia after oral administration. The class given is in vivo, rat. The following applies: p.o.
Source text: as §1, §2

Structures are written as SMILES. Bounds are passed on as bounds.

`O=C1CCC2CN(S(=O)(=O)c3ccccc3F)CCN12` (stereo not drawn) [NT-24781, 2-(2-fluorobenzenesulfonyl)hexahydropyrrolo[1,2-a]pyrazin-6-one]: the “Lowest dose at which paclitaxel-induced hyperalgesia is inhibited in a statistically significant manner (P < 0.05)” value in the experiment with paclitaxel-treated rats [1] (15 min after administration), with paclitaxel-treated rats [1] (30 min after administration) and in the experiment with paclitaxel-treated rats [1] (45 min after administration) was above 3 mg/kg throughout. Besides, the “Effect on paclitaxel-induced mechanical allodynia (von Frey test)” value in the experiment with paclitaxel-treated rats [2] is “almost inactive”.
Turning to `O=C1CCC2CN(S(=O)(=O)c3ccccc3F)CCN12` (racemic) [R:S mixture 3:1, 2-(2-fluorobenzenesulfonyl)hexahydropyrrolo[1,2-a]pyrazin-6-one], the “Effect on paclitaxel-induced mechanical allodynia (von Frey test)” value in the experiment with paclitaxel-treated rats [2] (1 mg/kg) is listed as “the most active one”.
On the same count and under the same terms, the entry for `O=C1CCC2CN(S(=O)(=O)c3ccccc3F)CCN12` (racemic) [R:S mixture 1:1, 2-(2-fluorobenzenesulfonyl)hexahydropyrrolo[1,2-a]pyrazin-6-one] is “marginally effective”.
With `O=C1CC[C@@H]2CN(S(=O)(=O)c3ccccc3F)CCN12` [NT-24336, 2-(2-fluorobenzenesulfonyl)hexahydropyrrolo[1,2-a]pyrazin-6-one], the figures for the “Lowest dose at which CCI-induced mechanical allodynia is inhibited in a statistically significant manner (P < 0.05)” value in the experiment with CCI rats (30 min after administration), with CCI rats (60 min after administration) and in the experiment on CCI rats (90 min after administration) were 1 mg/kg, 3 mg/kg and 3 mg/kg, respectively. Further, the “Lowest dose at which MIA-induced mechanical hyperalgesia is inhibited in a statistically significant manner (P < 0.05)” value in the experiment with MIA-treated rats (15 min after administration), with MIA-treated rats (30 min after administration) and in the experiment with MIA-treated rats (45 min after administration) was 3 mg/kg each time. In addition, the “Lowest dose at which streptozotocin-induced diabetese-like thermal hyperalgesia is inhibited in a statistically significant manner (P < 0.05)” value in experiment [3] (30 min after administration), in experiment [3] (60 min after administration), in experiment [3] (90 min after administration) and in experiment [3] (120 min after administration) was 30 mg/kg in each case. Moreover, the “Lowest dose at which oxaliplatin-induced hyperalgesia is inhibited in a statistically significant manner (P < 0.05)” value in the experiment with oxaliplatin-treated rats (30 min after administration) is reported as 1 mg/kg; in the experiment on oxaliplatin-treated rats (60 min after administration), 1 mg/kg; in the experiment on oxaliplatin-treated rats (90 min after administration) it was 1 mg/kg; in the experiment with oxaliplatin-treated rats (120 min after administration) it was above 10 mg/kg. The “Lowest dose at which vincristine-induced hyperalgesia is inhibited in a statistically significant manner (P < 0.05)” value in the experiment with vincristine-treated rats (30 min after administration) was 10 mg/kg; in the experiment with vincristine-treated rats (60 min after administration), 10 mg/kg; with vincristine-treated rats (90 min after administration) it was 10 mg/kg; in the experiment with vincristine-treated rats (120 min after administration), above 10 mg/kg. The “Lowest dose at which paclitaxel-induced hyperalgesia is inhibited in a statistically significant manner (P < 0.05)” value in the experiment with paclitaxel-treated rats [1] (15 min after administration), with paclitaxel-treated rats [1] (30 min after administration) and in the experiment with paclitaxel-treated rats [1] (45 min after administration) was 3 mg/kg throughout.
